Reference: PubChem BioAssay AID1963450 (Molecular Pharmacology Branch, DTP, NCI, 2024)
“And” between values parts separate entries of the source, which are not always exact repeats. Identical values can stand only once.

Tested on: 556581-035-R-J1-PDC complex spheroid growth
Assay: Anticancer human tumor 556581-035-R-J1-PDC patient-derived ovarian carcinoma cell line growth inhibition [Asc]
Settings: for viability, T/C: stronger effect = lower value
Method in brief: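 Spheroid model: tumor line + HUVEC + hMSC. Single agents and combinations; top conc. at/near clinical Cmax (10 microM if undetermined), half-log dilutions. DMSO stocks at 800-fold test concentration.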

[1] = curve of first compound, second compound 0.03 µM
[2] = curve of first compound, second compound 0.0949 µM
[3] = curve of first compound, second compound 0.3 µM
[4] = curve of first compound, second compound 0.949 µM
[5] = curve of first compound, second compound 3 µM
[6] = second compound 0.03 µM, first compound 0.0316 µM
[7] = second compound 0.03 µM, first compound 0.1 µM
[8] = second compound 0.03 µM, first compound 0.316 µM
[9] = second compound 0.03 µM, first compound 1 µM
[10] = second compound 0.0949 µM, first compound 0.0316 µM
[11] = second compound 0.0949 µM, first compound 0.1 µM
[12] = second compound 0.0949 µM, first compound 0.316 µM
[13] = second compound 0.0949 µM, first compound 1 µM
[14] = second compound 0.3 µM, first compound 0.0316 µM
[15] = second compound 0.3 µM, first compound 0.1 µM
[16] = second compound 0.3 µM, first compound 0.316 µM
[17] = second compound 0.3 µM, first compound 1 µM
[18] = second compound 0.949 µM, first compound 0.0316 µM
[19] = second compound 0.949 µM, first compound 0.1 µM
[20] = second compound 0.949 µM, first compound 0.316 µM
[21] = second compound 0.949 µM, first compound 1 µM
[22] = second compound 3 µM, first compound 0.0316 µM
[23] = second compound 3 µM, first compound 0.1 µM
[24] = second compound 3 µM, first compound 0.316 µM
[25] = second compound 3 µM, first compound 1 µM
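Also: spheroids exposed to agents for 7 days before viability read.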

`O=C(c1cc(Cc2n[nH]c(=O)c3ccccc23)ccc1F)N1CCN(C(=O)C2CC2)CC1` + CCN1C(C(=O)NC23CCC(C(=O)O)(CC2)CC3)C(c2cccc(Cl)c2F)C2(C(=O)Nc3cc(Cl)ccc32)C12CCCCC2 was tested, and the IC50 [1] was > 10 µM, the IC50 [2] was > 10 µM and the IC50 [3] was > 10 µM. The IC50 [4] was > 10 µM, the IC50 [5] was > 10 µM and the viability, T/C [6] was 105%. For the same molecule, the viability, T/C [7] was 98%, the viability, T/C [8] was 85.5% and the viability, T/C [9] was 89.9%. The viability, T/C (second compound 0.03 µM, first compound 3.16 µM) was 86.7%, the viability, T/C (second compound 0.03 µM, first compound 10 µM) was 70.6% and the viability, T/C [10] was 106%. The viability, T/C [11] was 96.2%, the viability, T/C [12] was 94% and the viability, T/C [13] was 93.7%. For the same molecule, the viability, T/C (second compound 0.0949 µM, first compound 3.16 µM) was 87.9%, the viability, T/C (second compound 0.0949 µM, first compound 10 µM) was 77% and the viability, T/C [14] was 104%. For the same molecule, the viability, T/C [15] was 97.2%, the viability, T/C [16] was 99.2% and the viability, T/C [17] was 97.1%. For the same molecule, the viability, T/C (second compound 0.3 µM, first compound 3.16 µM) was 73.3%, the viability, T/C (second compound 0.3 µM, first compound 10 µM) was 79.2% and the viability, T/C [18] was 89.9%. It also gave a viability, T/C [19] of 92.6%, a viability, T/C [20] of 103% and a viability, T/C [21] of 86.1%. For the same molecule, the viability, T/C (second compound 0.949 µM, first compound 3.16 µM) was 79.3%, the viability, T/C (second compound 0.949 µM, first compound 10 µM) was 83.6% and the viability, T/C [22] was 97.5%. It also gave a viability, T/C [23] of 81.8%, a viability, T/C [24] of 87.5% and a viability, T/C [25] of 86.8%. For the same molecule, the viability, T/C (second compound 3 µM, first compound 3.16 µM) was 84.8% and the viability, T/C (second compound 3 µM, first compound 10 µM) was 65.9%.

With `Cc1nc(N2CCC3(CC2)COC(C)C3N)c(CO)nc1Sc1ccnc(N)c1Cl` (configuration not stated) the viability, T/C (compound 0.00949 µM) was 111% (2×) and 89.8%, the viability, T/C (compound 0.03 µM) was 101% and 92.6% and 91.2% and the viability, T/C (compound 0.0949 µM) was 87.5% and 79.8% and 84%. The viability, T/C (compound 0.3 µM) was 81.9% and 68.8% and 83.9%, the viability, T/C (compound 0.949 µM) was 62.8% and 61.9% and 56.5% and the viability, T/C (compound 3 µM) was 44.7% and 51% and 51.8%. The IC50 (curve of compound) was 2.29 µM and > 3 µM.

Work on `CNC(C)C(=O)NC1CN(S(=O)(=O)c2cccc(S(=O)(=O)N3CCC4CCC(C(=O)NC(c5ccccc5)c5ccccc5)N4C(=O)C(NC(=O)C(C)NC)C3)c2)CCC2CCC(C(=O)NC(c3ccccc3)c3ccccc3)N2C1=O` (configuration not stated) + Cc1c(S(C)(=O)=O)c(-c2cc(F)cc(N3CCN(c4ccc(NS(=O)(=O)c5ccc(NC(CCN6CCC(C(=O)OCCCP(=O)(O)O)CC6)CSc6ccccc6)c(S(=O)(=O)C(F)(F)F)c5)cc4)CC3)c2)c(-c2ccc(Cl)cc2)n1C(C)C yielded an IC50 (curve of first compound, second compound 0.1 µM) of 0.0873 µM, an IC50 (curve of first compound, second compound 0.316 µM) of 0.0738 µM and an IC50 (curve of first compound, second compound 1 µM) of 0.0499 µM. The IC50 (curve of first compound, second compound 3.16 µM) was 0.00627 µM, the IC50 (curve of first compound, second compound 10 µM) was < 0.00316 µM and the viability, T/C (second compound 0.1 µM, first compound 0.00316 µM) was 68.6%. For the same molecule, the viability, T/C (second compound 0.1 µM, first compound 0.01 µM) was 69.5%, the viability, T/C (second compound 0.1 µM, first compound 0.0316 µM) was 60% and the viability, T/C (second compound 0.1 µM, first compound 0.1 µM) was 48%. It also gave a viability, T/C (second compound 0.1 µM, first compound 0.316 µM) of 49.1%, a viability, T/C (second compound 0.1 µM, first compound 1 µM) of 41.1% and a viability, T/C (second compound 0.316 µM, first compound 0.00316 µM) of 60.2%. It also gave a viability, T/C (second compound 0.316 µM, first compound 0.01 µM) of 73.3%, a viability, T/C (second compound 0.316 µM, first compound 0.0316 µM) of 68.4% and a viability, T/C (second compound 0.316 µM, first compound 0.1 µM) of 43.7%. For the same molecule, the viability, T/C (second compound 0.316 µM, first compound 0.316 µM) was 41%, the viability, T/C (second compound 0.316 µM, first compound 1 µM) was 26% and the viability, T/C (second compound 1 µM, first compound 0.00316 µM) was 61.8%. The viability, T/C (second compound 1 µM, first compound 0.01 µM) was 53.2%, the viability, T/C (second compound 1 µM, first compound 0.0316 µM) was 67.3% and the viability, T/C (second compound 1 µM, first compound 0.1 µM) was 33.5%. It also gave a viability, T/C (second compound 1 µM, first compound 0.316 µM) of 28.6%, a viability, T/C (second compound 1 µM, first compound 1 µM) of 26.8% and a viability, T/C (second compound 3.16 µM, first compound 0.00316 µM) of 49.7%. For the same molecule, the viability, T/C (second compound 3.16 µM, first compound 0.01 µM) was 54%, the viability, T/C (second compound 3.16 µM, first compound 0.0316 µM) was 34.7% and the viability, T/C (second compound 3.16 µM, first compound 0.1 µM) was 35.5%. It also gave a viability, T/C (second compound 3.16 µM, first compound 0.316 µM) of 24.5%, a viability, T/C (second compound 3.16 µM, first compound 1 µM) of 24.5% and a viability, T/C (second compound 10 µM, first compound 0.00316 µM) of 49.4%. For the same molecule, the viability, T/C (second compound 10 µM, first compound 0.01 µM) was 35.1%, the viability, T/C (second compound 10 µM, first compound 0.0316 µM) was 42.4% and the viability, T/C (second compound 10 µM, first compound 0.1 µM) was 33.6%. For the same molecule, the viability, T/C (second compound 10 µM, first compound 0.316 µM) was 27.8% and the viability, T/C (second compound 10 µM, first compound 1 µM) was 30.7%.

For `COc1c(OCCCN2CCOCC2)ccc2c3n(c(=NC(=O)c4cnc(N)nc4)nc12)CCN3` + CCN1C(C(=O)NC23CCC(C(=O)O)(CC2)CC3)C(c2cccc(Cl)c2F)C2(C(=O)Nc3cc(Cl)ccc32)C12CCCCC2, the IC50 [1] was 0.0589 µM, the IC50 [2] was 0.0427 µM and the IC50 [3] was 0.0394 µM. The IC50 [4] was 0.0511 µM, the IC50 [5] was 0.0333 µM and the viability, T/C (second compound 0.03 µM, first compound 0.00316 µM) was 71.9%. For the same molecule, the viability, T/C (second compound 0.03 µM, first compound 0.01 µM) was 65.5%, the viability, T/C [6] was 59.2% and the viability, T/C [7] was 43.3%. The viability, T/C [8] was 20%, the viability, T/C [9] was 13.4% and the viability, T/C (second compound 0.0949 µM, first compound 0.00316 µM) was 78.3%. The viability, T/C (second compound 0.0949 µM, first compound 0.01 µM) was 70.1%, the viability, T/C [10] was 51.7% and the viability, T/C [11] was 39.3%. For the same molecule, the viability, T/C [12] was 25.7%, the viability, T/C [13] was 13.5% and the viability, T/C (second compound 0.3 µM, first compound 0.00316 µM) was 76.7%. The viability, T/C (second compound 0.3 µM, first compound 0.01 µM) was 70%, the viability, T/C [14] was 50.2% and the viability, T/C [15] was 39%. The viability, T/C [16] was 22.5%, the viability, T/C [17] was 15.4% and the viability, T/C (second compound 0.949 µM, first compound 0.00316 µM) was 78.3%. It also gave a viability, T/C (second compound 0.949 µM, first compound 0.01 µM) of 75.2%, a viability, T/C [18] of 58.2% and a viability, T/C [19] of 40.2%. For the same molecule, the viability, T/C [20] was 21.6%, the viability, T/C [21] was 45.8% and the viability, T/C (second compound 3 µM, first compound 0.00316 µM) was 62.2%. For the same molecule, the viability, T/C (second compound 3 µM, first compound 0.01 µM) was 57.9%, the viability, T/C [22] was 46.7% and the viability, T/C [23] was 45.5%. For the same molecule, the viability, T/C [24] was 27.5% and the viability, T/C [25] was 14.6%.
